Test results reported in patent US9499538B2, “Estrogen receptor modulators and uses thereof” (Seragon Pharmaceuticals, Inc., priority 2012, dated 2016).
pIC50: −log10 of the molar value.

Key:
MCF-7 cells = experiment: Breast Cancer Cell Viability Assays (MCF-7, CellTiter-Glo); format: cell-based; settings: 5 days' compound exposure; for pIC50: Homo sapiens, MCF7, 120 h
Outline: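 MCF-7 cells (320/well, RPMI with 10% FBS) exposed for 5 days to an eleven-point semilog series, 0.3–0.000003 μM final. Viability read by CellTiter-Glo luminescence, expressed as background-corrected percent of untreated cells.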

ER-α in MCF-7 cells = biological target: T1, ER-α in MCF-7 cells (Homo sapiens, UniProt P03372); experiment: Breast Cancer Cell ER-α In Cell Western Assay (SP1); format: cell-based; settings: 4 or 24 hr post compound addition; for Emax: MCF7, SP1 antibody, read-out: ER-α In Cell Western Assay (SP1) Max Response; for DC50: SP1 antibody, read-out: ER-α In Cell Western Assay (SP1) IC50
T1 construct: endogenous in cells; host or cells: MCF-7
T1 sequence (P03372 1-595): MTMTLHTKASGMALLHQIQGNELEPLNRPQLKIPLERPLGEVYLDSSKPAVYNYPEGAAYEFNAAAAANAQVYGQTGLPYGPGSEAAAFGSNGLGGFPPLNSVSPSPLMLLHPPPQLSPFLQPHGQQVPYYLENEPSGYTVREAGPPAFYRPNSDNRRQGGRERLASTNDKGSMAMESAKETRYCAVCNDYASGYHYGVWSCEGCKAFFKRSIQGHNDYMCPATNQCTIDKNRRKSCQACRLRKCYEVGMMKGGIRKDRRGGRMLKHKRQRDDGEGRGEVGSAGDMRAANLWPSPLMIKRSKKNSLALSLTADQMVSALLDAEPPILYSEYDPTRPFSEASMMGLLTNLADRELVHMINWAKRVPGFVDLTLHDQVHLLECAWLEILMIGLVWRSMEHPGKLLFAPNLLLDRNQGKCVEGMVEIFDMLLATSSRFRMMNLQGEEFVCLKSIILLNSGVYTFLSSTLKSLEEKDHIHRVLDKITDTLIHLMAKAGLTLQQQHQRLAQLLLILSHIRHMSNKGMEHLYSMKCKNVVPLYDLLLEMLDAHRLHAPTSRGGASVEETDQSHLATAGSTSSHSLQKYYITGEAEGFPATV
Outline: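 MCF-7 cells in charcoal-stripped FBS medium, treated with 11-point semilog dilutions (0.3–0.000003 μM final) for 4 or 24 h. Fixed cells immunostained with SP1 antibody (800 nm) and DRAQ5 DNA (700 nm); ER/DNA ratio expressed as % of untreated cells.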

Row | SMILES | MCF7 Viability Assay Max Response (MCF-7 cells) | pIC50 (MCF-7 cells) | Emax (ER-α in MCF-7 cells) [%] | DC50 (ER-α in MCF-7 cells) [nM]
1 | COc1cnc(/C(=C(\c2ccc(/C=C/C(=O)O)cc2)c2ccc3[nH]nc(F)c3c2)C2CC2)c(C)c1 [Example 158, (E)-3-(4-((E)-2-Cyclopropyl-1-(3-fluoro-1H-indazol-5-yl)-2-(5-methoxy-3-methylpyridin-2-yl)vinyl)phenyl)acrylic acid] | ++ (++ = a single % value ≧ 40%) | ≥ 7.00 | ≥ 40 | ≤ 100
2 | N#Cc1c(/C(=C(/c2ccccc2)C2CC2)c2ccc(/C=C/C(=O)O)cc2)ccc2[nH]ncc12 [Example 13, (E)-3-(4-((E)-1-(4-Cyano-1H-indazol-5-yl)-2-cyclopropyl-2-phenylvinyl)phenyl)acrylic acid] | ++ (++ = a single % value ≧ 40%) | ≥ 7.00 | ≥ 40 | ≤ 100
3 | COc1ccc(/C(=C(\c2ccc(/C=C/C(=O)O)cc2)c2ccc3[nH]ncc3c2)C2CCC2)c(C)c1 [Example 64, (E)-3-(4-((E)-2-Cyclobutyl-1-(1H-indazol-5-yl)-2-(4-methoxy-2-methylphenyl)vinyl)phenyl)acrylic acid] | ++ (++ = a single % value ≧ 40%) | ≥ 7.00 | ≥ 40 | ≤ 100
4 | Cc1cscc1/C(=C(\c1ccc(/C=C/C(=O)O)cc1)c1cccc2[nH]ncc12)C1CCC1 [Example 126, (E)-3-(4-((E)-2-Cyclobutyl-1-(1H-indazol-4-yl)-2-(4-methylthiophen-3-yl)vinyl)phenyl)acrylic acid] | ++ (++ = a single % value ≧ 40%) | ≥ 7.00 | ≥ 40 | ≤ 100
5 | O=C(O)/C=C/c1ccc(/C(=C(\c2ccccc2)C2CCC2)c2ccc3[nH]nc(F)c3c2)cc1Cl [Example 167, (E)-3-(2-Chloro-4-((Z)-2-cyclobutyl-1-(3-fluoro-1H-indazol-5-yl)-2-phenylvinyl)phenyl)acrylic acid] | ++ (++ = a single % value ≧ 40%) | ≥ 7.00 | ≥ 40 | ≤ 100
6 | N#Cc1c(/C(=C(/c2ccc(F)cc2Cl)C2CC2)c2ccc(/C=C/C(=O)O)cc2)ccc2[nH]nc(F)c12 [Example 222, (E)-3-(4-((E)-2-(2-Chloro-4-fluorophenyl)-1-(4-cyano-3-fluoro-1H-indazol-5-yl)-2-cyclopropylvinyl)phenyl)acrylic acid] | ++ (++ = a single % value ≧ 40%) | ≥ 7.00 | ≥ 40 | ≤ 100
7 | N#Cc1ccc(/C(=C(\c2ccc(/C=C/C(=O)O)cc2)c2ccc3[nH]nc(F)c3c2)C2CC2)c(F)c1 [Example 156, (E)-3-(4-((E)-2-(4-Cyano-2-fluorophenyl)-2-cyclopropyl-1-(3-fluoro-1H-indazol-5-yl)vinyl)phenyl)acrylic acid] | ++ (++ = a single % value ≧ 40%) | ≥ 7.00 | ≥ 40 | ≤ 100
8 | Fc1n[nH]c2ccc(/C(=C(/c3ccccc3)C3CCC3)c3ccc(/C=C/c4ncon4)cc3)cc12 [Example 209, 3-((E)-4-((E)-2-Cyclobutyl-1-(3-fluoro-1H-indazol-5-yl)-2-phenylvinyl)styryl)-1,2,4-oxadiazole] | + (+ = a single % value < 40%) | ≥ 7.00 | ≥ 40 | ≤ 100
9 | O=C(O)/C=C/c1ncc(/C(=C(\c2ccccc2)C2CCC2)c2ccc3[nH]nc(F)c3c2)cc1F [Example 161, (E)-3-(5-((Z)-2-Cyclobutyl-1-(3-fluoro-1H-indazol-5-yl)-2-phenylvinyl)-3-fluoropyridin-2-yl)acrylic acid] | ++ (++ = a single % value ≧ 40%) | ≥ 7.00 | ≥ 40 | ≤ 100
10 | Fc1n[nH]c2ccc(/C(=C(/c3ccccc3)C3CCC3)c3ccc(/C=C/c4cn[nH]c4)cc3)cc12 [Example 206, 5-((E)-1-(4-((E)-2-(1H-Pyrazol-4-yl)vinyl)phenyl)-2-cyclobutyl-2-phenylvinyl)-3-fluoro-1H-indazole] | + (+ = a single % value < 40%) | ≥ 7.00 | ≥ 40 | ≤ 100
11 | Fc1n[nH]c2ccc(/C(=C(/c3ccccc3)C3CCC3)c3ccc(/C=C/c4nnc[nH]4)cc3)cc12 [Example 284, 5-((E)-1-(4-((E)-2-(4H-1,2,4-Triazol-3-yl)vinyl)phenyl)-2-cyclobutyl-2-phenylvinyl)-3-fluoro-1H-indazole] | ++ (++ = a single % value ≧ 40%) | ≥ 7.00 | ≥ 40 | ≤ 100
12 | N#Cc1cc(Cl)cnc1/C(=C(\c1ccc(/C=C/C(=O)O)cc1)c1ccc2[nH]nc(F)c2c1)C1CCC1 [Example 249, (E)-3-(4-((E)-2-(5-Chloro-3 cyanopyridin-2-yl)-2-cyclobutyl-1-(3-fluoro-1H-indazol-5-yl)vinyl)phenyl)acrylic acid] | ++ (++ = a single % value ≧ 40%) | ≥ 7.00 | ≥ 40 | ≤ 100
13 | O=C(O)/C=C/c1cnc(/C(=C(\c2ccccc2)C2CCC2)c2ccc3[nH]nc(F)c3c2)cn1 [Example 159, (E)-3-(5-((Z)-2-Cyclobutyl-1-(3-fluoro-1H-indazol-5-yl)-2-phenylvinyl)pyrazin-2-yl)acrylic acid] | ++ (++ = a single % value ≧ 40%) | ≥ 7.00 | ≥ 40 | ≤ 100
14 | O=C(O)/C=C/c1ccc(/C(=C(\c2ncc(C(F)(F)F)cc2Cl)C2CCC2)c2ccc3[nH]nc(F)c3c2)cc1 [Example 250, (E)-3-(4-((E)-2-(3-Chloro-5-(trifluoromethyl)pyridin-2-yl)-2-cyclobutyl-1-(3-fluoro-1H-indazol-5-yl)vinyl)phenyl)acrylic acid] | ++ (++ = a single % value ≧ 40%) | ≥ 7.00 | ≥ 40 | ≤ 100
15 | CCOc1cc(C)c(/C(=C(\c2ccc(/C=C/C(=O)O)cc2)c2ccc3[nH]nc(F)c3c2)C2CC2)cn1 [Example 117, (E)-3-(4-((E)-2-Cyclopropyl-2-(6-ethoxy-4-methylpyridin-3-yl)-1-(3-fluoro-1H-indazol-5-yl)vinyl)phenyl)acrylic acid] | ++ (++ = a single % value ≧ 40%) | ≥ 7.00 | ≥ 40 | ≤ 100
16 | COc1ccc(/C(=C(\c2ccc(/C=C/C(=O)O)cc2)c2ccc3[nH]ncc3c2)C2CCC2)c(C#N)c1 [Example 42, (E)-3-(4-((E)-2-(2-Cyano-4-methoxyphenyl)-2-cyclobutyl-1-(1H-indazol-5-yl)vinyl)phenyl)acrylic acid] | ++ (++ = a single % value ≧ 40%) | ≥ 7.00 | ≥ 40 | ≤ 100
17 | CC/C(=C(/c1ccc(/C=C/C(=O)O)cc1)c1ccc2[nH]nc(F)c2c1)c1cccc(Oc2cnc(S(C)(=O)=O)cn2)c1 [Example 57, (E)-3-(4-((E)-1-(3-Fluoro-1H-indazol-5-yl)-2-(3-((5-(methylsulfonyl)pyrazin-2-yl)oxy)phenyl)but-1-en-1-yl)phenyl)acrylic acid] | ++ (++ = a single % value ≧ 40%) | ≥ 7.00 | ≥ 40 | ≤ 100
18 | O=C(O)/C=C/c1ccc(/C(=C(\c2ncccc2C(F)(F)F)C2CCC2)c2ccc3[nH]nc(F)c3c2)cn1 [Example 260, (E)-3-(5-((Z)-2-Cyclobutyl-1-(3-fluoro-1H-indazol-5-yl)-2-(3-(trifluoromethyl)pyridin-2-yl)vinyl)pyridin-2-yl)acrylic acid] | ++ (++ = a single % value ≧ 40%) | ≥ 7.00 | ≥ 40 | ≤ 100
19 | O=C(O)/C=C/c1ccc(/C(=C(\c2cncc(F)c2)C2CCC2)c2ccc3[nH]nc(F)c3c2)cc1 [Example 131, (E)-3-(4-((E)-2-Cyclobutyl-1-(3-fluoro-1H-indazol-5-yl)-2-(5-fluoropyridin-3-yl)vinyl)phenyl)acrylic acid] | ++ (++ = a single % value ≧ 40%) | ≥ 7.00 | ≥ 40 | ≤ 100
20 | Cc1ccccc1/C(=C(\c1ccc(/C=C/C(=O)O)cc1)c1ccc2[nH]nc(F)c2c1)C1CCC1 [Example 125, (E)-3-(4-((E)-2-Cyclobutyl-1-(3-fluoro-1H-indazol-5-yl)-2-(o-tolyl)vinyl)phenyl)acrylic acid] | ++ (++ = a single % value ≧ 40%) | ≥ 7.00 | ≥ 40 | ≤ 100
